Values quoted from earlier work in patent US11877993B1, “Gamma-hydroxybutyrate salts for the treatment of psychological disorders” (priority 2021, dated 2024).

System: patients with severe PTSD
Conditions: MDMA-assisted therapy

CNC(C)Cc1ccc2c(c1)OCO2 (stereo not drawn) [MDMA, 3,4-methylenedioxymethamphetamine]
Tolerability (individuals with severe PTSD, even with comorbidities): well-tolerated
Attenuation in CAPS-5 score compared with placebo, effect size d (severe PTSD, P<0.0001): 0.91
Decrease of SDS total score, effect size d (severe PTSD, P=0.0116): 0.43
